This experiment relates to Jurkat NF-kB reporter, TCR-induced, luciferase luminescence. Kind of experiment: T-cell NF-kB luciferase reporter inhibition – Jurkat cells, luminescence, dose response (AID 489035). (In general: In a reporter assay the amount or activity of a reporter protein is the signal.)

Active and inactive are the calls of the source. The rule behind the calls is not given here.

Regarding `O=C1C=CCC(/C=C/c2ccccc2)O1` (centres undefined), the half-inhibitory concentration (IC50) (commonly the concentration that inhibits the measured activity by half) was 0.17 µM.

Take `COC(=O)CCC(=O)NC(=S)Nc1sc(C)c(C)c1C(N)=O`: the IC50 is > 80 µM (inactive).

Regarding `COc1cccc(/C=N/Nc2ncnc3scc(-c4ccccc4)c23)c1O`, the IC50 was 1.26 µM.

For the compound `COc1ccc2nc(C)cc(N/N=C/c3ccc(F)cc3)c2c1`, the IC50 is 2.35 µM.

Regarding `CCOc1cc(C#N)c(NC(=O)c2cccnc2)cc1OCC`, the IC50 is > 80 µM (inactive).

For `CCCN1C=CC(=C2C(=O)c3ccccc3C2=O)C=C1`, the half-maximal inhibitory concentration (IC50) was 0.52 µM.

With `Cc1ccc(NS(=O)(=O)c2ccc(C(=O)NC3CCN(Cc4ccccc4)CC3)cc2)cc1`, the IC50 was 19.8 µM.

Turning to `CCOC(=O)c1c(C)[nH]c(C(=O)N/N=C/c2ccc(Br)cc2)c1C`, the 50% inhibitory concentration (IC50) was 9.36 µM.

On to `Cc1ccc(NC(=O)C2=C(c3ccccc3)S(=O)(=O)CCS2(=O)=O)cc1`, for which the IC50 is 1.61 µM.

For `COc1cccc(CN(C)C(=O)c2cc(COc3ccc4ncccc4c3)on2)c1`, the IC50 is 12.5 µM.

On to `COc1cc(C(=O)Nc2ccc3c(c2)CCN3C(C)=O)cc(OC)c1OC`, for which the IC50 was > 80 µM (inactive).

For the compound `O=c1cc(-c2ccccc2)[nH]c2cc(F)ccc12`, the IC50 is > 80 µM (inactive).

For `COc1ccc(OCC(=O)Nc2ccccc2N2CCCCC2)cc1`, the IC50 is > 80 µM (inactive).

Turning to `CCOc1ccccc1NC(=O)Cn1nnc(C(=O)NCc2cccs2)c1N`, the IC50 was > 80 µM (inactive).

As for `COc1ccc(-n2nnnc2-c2cccc(OC)c2)cc1`, the IC50 is > 80 µM (inactive).

With `C/C(=N\NC(=O)c1ccc(Cl)c(Cl)c1)c1ccccn1`, the IC50 is 1.3 µM.

`C[C@]12CC[C@@H]3c4cc(O)c(O)cc4CC[C@H]3[C@@H]1CC[C@@H]2O`: the IC50 is 4.76 µM.

`O=C(OCCN1C(=O)c2cccc3c(N4CCOCC4)ccc(c23)C1=O)c1ccc(Cl)cc1`: the IC50 is > 80 µM (inactive).

`COC(=O)[C@]12OC[C@]34C([C@@H](O)[C@@H]1O)[C@]1(C)CC(=O)C(O)=C(C)[C@@H]1C[C@H]3OC(=O)[C@H](O)[C@@H]24` (some centres undefined): the IC50 was less than 0.16 µM.

`CCCOC(=O)c1[nH]c2c(c1C)C(=O)CC(c1cccs1)C2` (centres undefined): the IC50 was 32.1 µM (inactive).

With `CC1(C)Cc2nc3sc4c(=O)n(CC(=O)NCc5ccccc5)cnc4c3cc2CO1`, the IC50 is > 80 µM (inactive).

Consider `COc1ccc(/C=C/C(=O)c2cc(F)ccc2OC(=O)c2ccccc2)cc1OC`, for which the concentration for half-maximal inhibition (IC50) was 2.49 µM.

Turning to `O=C(Nc1ccncc1)C1CCCN(S(=O)(=O)c2cccc3cccnc23)C1` (centres undefined), the IC50 was > 80 µM (inactive).

For the compound `O=C(/C=C/c1cccc([N+](=O)[O-])c1)n1cnc2ccccc21`, the half-inhibitory concentration (IC50) is 5.79 µM.

In the case of `CC(=O)O[C@@]12CO[C@@H]1C[C@H](O)[C@@]1(C)C(=O)[C@H](O)C3=C(C)[C@@H](OC(=O)[C@H](O)[C@@H](NC(=O)c4ccccc4)c4ccccc4)C[C@@](O)([C@@H](OC(=O)c4ccccc4)C12)C3(C)C` (some centres undefined), the IC50 was 39.4 µM (inactive).

With `CCOC(=O)c1[nH]c2c(c1C)C(=O)CC(c1ccco1)C2` (centres undefined), the IC50 is > 80 µM (inactive).

In the case of `COc1ccc(CNS(=O)(=O)c2cc(-c3cc(C)no3)ccc2C(C)C)cc1`, the IC50 is 64.6 µM (inactive).

For `Cc1ccc2c(c1)Oc1ccc(NC(=O)CCl)cc1C(=O)N2`, the IC50 was 5.22 µM.

For `C#CC[N+](C)(C)CCCCCCCCCCCC`, the concentration for half-maximal inhibition (IC50) is 9.77 µM.

With `CCS(=O)(=O)c1ncc(Cl)c(C(=O)Nc2ccc(S(=O)(=O)N(C)c3ccccc3)cc2)n1`, the IC50 was 0.8 µM.

As for `Cc1oc(-c2ccc(Cl)cc2)nc1CS(=O)CC(=O)NCCCN1CCN(Cc2ccccc2)CC1` (centres undefined), the IC50 is 26.4 µM (inactive).

Consider `COC(=O)c1cnc(Oc2ccc(NC(=O)NC(=O)c3c(F)cccc3Cl)cc2)cc1C(F)(F)F`, for which the IC50 is > 80 µM (inactive).

`CCOC(=O)c1[nH]c(C)c(C(=O)Nc2cc(Cl)ccc2C)c1C`: the IC50 was > 80 µM (inactive).

In the case of `COc1cc2c(cc1O)CC[C@@H]1[C@@H]2CC[C@]2(C)[C@@H](O)CC[C@@H]12`, the IC50 was > 80 µM (inactive).

The values above are taken from PubChem BioAssay AID489035 (Sanford-Burnham Center for Chemical Genomics, 2010).
